5 molecules from US20060074129A1, “Method for obtaining ozonized oils and vegetable fats and use of said products for pharmaceutical and cosmetic purposes” (priority 2002, published 2006) can be followed below.

Assay [1] has as its system blepharitis. The experiment in a line: Clinical study in blepharitis with acute bacterial infection. The note with it: topical on eyelid border, 7 days. The class given is in vivo, human. As for the experimental part:
The sample was constituted by 40 patients suffering from blepharitis, with acute bacterial infection. Twenty patients were treated with topical ozonized sunflower oil, three times a day, by rubbing the border of the eyelid with an applicator soaked with ozonized sunflower oil, during 7 days. The 20 other patients were treated in the same way with gentamycin ointment (0.3%), 4 times a day for 7 days. Healing of 95 and 88% was obtained with ozonized sunflower oil and gentamycin, respectively, with significant differences between both groups.

Assay [2] has as its system moderate simple periodontitis. Briefly: Random, controlled, single-blind phase III clinical trial in moderate simple periodontitis. The class given is in vivo, human. On the procedure:
In this study, we used ozonized sunflower oil in order to evaluate their effect on the treatment of moderate simple periodontitis and for preventing its recidivation. A random, controlled and single-blind phase III clinical trial was performed in 84 patients, older than 35 years, from both sexes. Ozonized sunflower oil was topically applied to 42 patients on the operated area and on the 7th, 14th and 21st days after operation on the adjacent periodontal tissues. The control group was formed by 42 patients that received the conventional treatment with chlorhexidine (aqueous solution 0.2%). An analytic index of hygiene, clinical and radiographical tests and microbiological controls was applied to the patients, at the beginning, on the 21st , 90th and 180th days and with intervals of 1 month until 9 months after operation. The effectiveness of the treatment after 180 days was considered as: good (satisfactory clinical and microbiological assessments) in 98% of the patients of the group treated with ozonized sunflower oil and in 78% of the control group; fairly good (some of the assessments were not satisfactory) for 2 and 17%, respectively, and in the category of bad (both assessments were not satisfactory) only 5% appears in the control group. Recidivation was more frequent in the control group (15%) than in the group treated with ozonized sunflower oil (5%). In general, the best clinical results (best evolution and healing during the study) and microbiological results were obtained in the group treated with ozonized sunflower oil, and also a lower percent of recidivation was found in that group.

The subject of assay [3] is Candida albicans. Briefly: Clinical study in vulvovaginal candidiasis. The settings on record: for healing: final vaginal exudate, six days after the last ovule; for time at which symptoms and signs disappeared in a higher percent: in vivo. The class given is in vivo. On the procedure: Ninety women, 17 to 51 years old, with diagnosis of vulvovaginal candidiasis were studied. Patients were allocated at random in three groups: 30 were treated with ovules containing 10% ozonized theobroma oil, 30 were treated with Nistatine and 30 with Clotrimazole. To all patients, a vaginal exudate was performed at the beginning and at the end of the treatment, six days after the application of the last ovule. Also, an interrogation and a physical test were performed to them. The clinical symptoms of those patients were pruritus, burning and leucorrhea with higher prevalence. […] Taking into account the final exudate, a healing of 97% was obtained for the patients treated with ozonized theobroma oil ovules, 80% for the group treated with Clotrimazole and 50% for the patients treated with Nistatine.

For assay [4], the system named is acute ulcer-necrotizing gingivitis. Briefly: Random phase III clinical assay in acute ulcer-necrotizing gingivitis. In kind it is in vivo, human. The settings on record: three times a day for 7 days. On the procedure: A random phase III clinical assay was performed in a group of 48 patients suffering from acute ulcer-necrotizing gingivitis. From those patients, 24 formed the group with ozonized sunflower oil, by topical applications on the lesions, three times a day, for 7 days. The control group (24 patients) was treated with local applications of aqueous solution of sodium perborate, as rinsings, with similar periodicity to that of the group treated with ozonized sunflower oil. The tests were performed 3 or 7 days after the beginning of the treatments.

As for gentamycin, the healing in assay [1] is given as 88%.
For the molecule `[H]/N=C(\N/C(=N/[H])NCCCCCCNC(=N)NC(=N)Nc1ccc(Cl)cc1)Nc1ccc(Cl)cc1` [chlorhexidine], the “effectiveness of the treatment considered bad” value in assay [2] (after 180 days, both assessments not satisfactory) is on record as 5%. Besides, the “effectiveness of the treatment considered good” value in assay [2] (after 180 days, satisfactory clinical and microbiological assessments) was 78%. For the same molecule, the “effectiveness of the treatment considered fairly good” value in assay [2] (after 180 days, some of the assessments not satisfactory) was found to be 17%. This molecule also returned a recidivation in assay [2] (human, in vivo) of 15%.
With Nistatine, in assay [3], the healing is 50%; the “time at which symptoms and signs disappeared in a higher percent” value is “between the ninth and twelfth days”.
Molecule sodium perborate had a patients healed in assay [4] of 29.2%.
Consider `Clc1ccccc1C(c1ccccc1)(c1ccccc1)n1ccnc1` [Clotrimazole], for which, in assay [3], the healing is listed as 80%; the “time at which symptoms and signs disappeared in a higher percent” value is “between the first and the fourth days of treatment”.
